Consider 25 compounds from US6251932A, “Immunophilin ligands” (ASTA Medica AG, priority 1998, dated 2001).

Data set [1] relates to T cells stimulated with OKT-3. The data set is described as follows: IL-2 proliferation test: 3H-thymidine incorporation in T cells stimulated with OKT-3 (CD3-induced proliferation). Format: cell-based. The conditions noted are these: Compound [10 μmol], OKT-3 1 μg/ml, 45 hours; for inhibition: T-cell. On the procedure:
The IL-2 proliferation test is based on the incorporation of ^3 H-thymidine in T cells stimulated with OKT-3 (human anti-CD-3-antibodies) and is carried out by inoculating 100,000 T cells into microtitre plates in 150 μl of culture medium per well, stimulated by addition of OKT-3 (1 μg/ml) and incubated for 45 hours in each case with one of the compounds of Formula I. After this incubation time, 10 μl of the ^3 H-thymidine solution (0.5 μCi) are pipetted into each well. The mixture is then incubated in a 5% CO2 atmosphere at 37° C. for 6 hours. After harvesting the cells, the radioactivity is quantified in a B-counter.
(In general: Dividing cells build labelled thymidine or BrdU into new DNA.)

For data set [2], the target named is human cyclophilin B (Homo sapiens, UniProt P23284). Briefly: PPIase test: inhibition of human cyclophilin B (Suc-Ala-Ala-Pro-Phe-Nan, chymotrypsin). It is filed as biochemical. The conditions noted are these: Compound [10 μmol]; preincubated 15 minutes at 4° C. with 10 nmol Cyp B. On the procedure:
The compounds of Formula I of the present invention are distinguished by immunophilin binding and inhibit isomerase activity. This prolyl isomerase activity is tested according to a conventional, well known enzyme test described in G. Fischer, H. Bang. Mech, Biomed. Biochim. Acta, 43, 1101-1111; G. Fischer, H. Bang, A Schellenberger, Biochim. Biophys. Acta, 791, 87-97, 1984; D. H. Rich et al., J. Med. Chem. 38, 4164-4170, 1995.
The compounds of Formula I of the present invention are distinguished by immunophilin binding and inhibit its peptidyl-prolyl cis-trans isomerase (PPlase) activity. […] This PPlase activity is determined by the aforementioned well known enzyme test.
The compounds of Formula I are preincubated at 4° C. for 15 minutes together with 10 nmol of Cyp B. The enzyme reaction is started using the test peptide Suc-Ala-Ala-Pro-Phe-Nan after addition of chymotrypsin and HEPES buffer. The change in extinction at 390 nm is then monitored and analyzed. The photometrically determined change in extinction results from two subreactions: a) the rapid chymotryptic cleavage of the trans peptide; b) the nonenzymatic cis-trans isomerization, which is catalysed by cyclophilins.

For data set [3] the following is noted: kidneys, neurotoxicity; cited from earlier work.
Data set [4] deals with bronchial asthma and underlying inflammations. The note with it: animal experiments and clinical studies; cited from earlier work.
Data set [5] relates to FKBP. The note with it: cited from earlier work.

Sequence of human cyclophilin B (P23284 34-216): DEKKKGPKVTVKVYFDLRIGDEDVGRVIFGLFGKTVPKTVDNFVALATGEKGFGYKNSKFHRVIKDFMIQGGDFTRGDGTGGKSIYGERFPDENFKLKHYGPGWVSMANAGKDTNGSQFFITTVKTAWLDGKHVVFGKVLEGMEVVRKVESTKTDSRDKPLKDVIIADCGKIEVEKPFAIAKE

Usually inhibition stands for the drop in the measured response relative to a control, in per cent. Read a high inhibition as strong suppression. Turning to `COC(=O)/C=C/c1ccc(NC(=O)[C@@H]2Cc3ccccc3N2S(=O)(=O)c2ccc(NC(C)=O)cc2)cc1` [Example 13, Methyl (E)-({(2S)-1-[4(acetylamino)phenylsulfonyl]indoln-2-yl}-carbonyl)-4-(aminophenyl)acrylate], in data set [1], the inhibition is 46%. In addition, in data set [2], the inhibition at 10 µM was 0 to 20%.
On to `COCCNC(=O)[C@H]1Cc2ccccc2N1C(=O)[C@@H]1Cc2ccccc2N1S(=O)(=O)c1ccc(NC(C)=O)cc1` [Example 2], for which, in data set [1], the inhibition amounted to 85%. This compound also returned an inhibition at 10 µM in data set [2] of 40%.
The matching figures for `COCCNC(=O)C1Cc2ccccc2N1C(=O)C1Cc2ccccc2N1S(=O)(=O)c1ccc(NC(C)=O)cc1` (racemic) [Example 5, (2R,S)-1-[((2R,S)-1-(4-acetylaminophenylsulfonyl)indolin-2-yl)-carbonyl]-N-(2-methoxyethyl)indoline-2-carbamide]: 85% and 20 to 40%.
The matching figures for `Cc1ccc(S(=O)(=O)N2c3ccccc3C[C@H]2C(=O)N2c3ccccc3C[C@H]2C(=O)NCCN2CCOCC2)cc1` [Example 17, (2S)-1-[((2S)-1-(4-methylphenylsulfonyl)indolin-2-yl)carbonyl]-N^2-(N-ethylmorpholine)indoline-2-carbamide]: 57% and 40%.
The corresponding values for `COCCNC(=O)[C@@H]1Cc2ccccc2N1C(=O)[C@@H]1Cc2ccccc2N1S(=O)(=O)c1ccc(NC(C)=O)cc1` [Example 1] are 83% and 40%.
Take `COCCNC(=O)[C@@H]1Cc2ccccc2N1C(=O)[C@@H]1Cc2ccccc2N1S(=O)(=O)c1ccc(N)cc1` [Example 6, (2S)-1-[((2S)-1-(4-aminophenylsulfonyl)indolin-2-yl)carbonyl]-N-(2-methoxyethyl)indoline-2-carbamide]: the inhibition in data set [1] turned out to be 84%. In data set [2], the inhibition at 10 µM is 40%.
The corresponding values for `COCCNC(=O)[C@@H]1Cc2ccccc2N1C(=O)C1CCN(S(=O)(=O)c2ccc(N)cc2)CC1` [Example 8, (2S)-1-[((2S)-1-(4-aminophenylsulfonyl)-4-piperidinyl)carbonyl]-N-(2-methoxyethyl)indoline-2-carbamide] are 71% and 40 to 60%.
The matching figures for `COCCNC(=O)[C@@H]1Cc2ccccc2N1C(=O)[C@@H]1Cc2ccccc2N1S(=O)(=O)c1cccc2ccccc12` [Example 14, (2S)-1-[((2S)-1-(1-naphthalenylsulfonyl)indolin-2-yl)carbonyl]-N-(2-methoxyethyl)indoline-2-carbamide]: 48% and 20%.
The matching figures for `Cc1ccc(S(=O)(=O)N2c3ccccc3C[C@H]2C(=O)N2c3ccccc3C[C@H]2C(=O)Nc2ccncc2)cc1` [Example 19, (2S)-1-[((2S)-1-(4-methylphenylsulfonyl)indolin-2-yl)carbonyl]-(4-pyridine)indoline-2-carbamide]: 64% and 40%.
For `COCCNC(=O)[C@@H]1Cc2ccccc2N1C(=O)[C@H]1Cc2ccccc2N1S(=O)(=O)c1ccc(NC(C)=O)cc1` [Example 3], the inhibition in data set [1] was 84%. Further, the inhibition at 10 µM in data set [2] came to 40%.
The corresponding values for `Cc1ccc(S(=O)(=O)N2c3ccccc3C[C@H]2C(=O)N2c3ccccc3C[C@H]2C(=O)NCCc2ccccn2)cc1` [Example 18, (2S)-1-[((2S)-1-(4-methylphenylsulfonyl)indolin-2-yl)carbonyl]-N^2-(ethyl-2-pyridine)indoline-2-carbamide] are 59% and 40%.
The matching figures for `CC(=O)Nc1ccc(S(=O)(=O)N2c3ccccc3C[C@@H]2C(=O)N2c3ccccc3C[C@@H]2C(=O)O)cc1` (racemic) [Example 23, (2RS)-1-({(2RS)-1-[4-(acetylamino)phenylsulfonyl]indolin-2-yl}-carbonyl)indoline-2-carboxylic acid]: 46% and 0 to 20%.
The corresponding values for `COC(=O)[C@H]1Cc2ccccc2N1C(=O)[C@H]1Cc2ccccc2N1S(=O)(=O)c1ccc(NC(C)=O)cc1` (racemic) [Example 22, Methyl (2RS)-1-({(2RS)-1-[4-(acetylamino)phenylsulfonyl]indolin-2-yl}carbonyl)indoline-2-carboxylate] are 43% and 30%.
`CC(=O)Nc1ccc(S(=O)(=O)N2c3ccccc3C[C@@H]2C(=O)O)cc1` [Example 21, (2R)-[4-(acetylamino)phenylsulfonyl]indoline-2-carboxylic acid] returned an inhibition in data set [1] of 12%. Also, the inhibition at 10 µM in data set [2] is 0 to 20%.
The corresponding values for `COC(=O)[C@H](CCCCNC(=O)OCc1ccccc1)NC(=O)[C@@H]1Cc2ccccc2N1S(=O)(=O)c1ccc(NC(C)=O)cc1` [Example 12, (S)-N-{(2S)-1-[4-(acetylamino)phenylsulfonyl]indolin-2-yl}carbonyl-N-(benzyloxycarbonyl)lysine methyl ester] are 79% and 60%.
The matching figures for `COCCNC(=O)[C@@H]1Cc2ccccc2N1C(=O)[C@@H]1CCCN1S(=O)(=O)c1ccc(N)cc1` [Example 7, (^2 S)-1-[((2S)-1-(4-aminophenylsulfonyl)prolyl)carbonyl]-N-(2-methoxyethyl)indoline-2-carbamide]: 79% and 40%.
In the case of `COCCNC(=O)[C@@H]1Cc2ccccc2N1S(=O)(=O)c1cccc2cccnc12` [Example 10, (2S)-1-[(8-quinolinylsulfonyl)]-N-(2-methoxyethyl)indolinecarbamide], the inhibition in data set [1] was determined as 59%. Further, the inhibition at 10 µM in data set [2] was 20 to 40%.
The corresponding values for `COCCNC(=O)[C@H]1Cc2ccccc2N1C(=O)[C@H]1Cc2ccccc2N1S(=O)(=O)c1ccc(NC(C)=O)cc1` [Example 4] are 85% and 60%.
The corresponding values for `COCCNC(=O)[C@@H]1Cc2ccccc2N1C(=O)C1CCN(S(=O)(=O)c2ccc(NC(C)=O)cc2)CC1` [Example 9] are 75% and 40 to 60%.
Regarding `CO[C@H]1C[C@@H]2CC[C@@H](C)[C@@](O)(O2)C(=O)C(=O)N2CCCC[C@H]2C(=O)O[C@H]([C@H](C)C[C@@H]2CC[C@@H](O)[C@H](OC)C2)CC(=O)[C@H](C)/C=C(\C)[C@@H](O)[C@@H](OC)C(=O)[C@H](C)C[C@H](C)/C=C/C=C/C=C/1C` [rapamycin], in data set [3], the side effects entry is “manifold side effects, in particular of the kidneys, and neurotoxicity”.
`CC(=O)Nc1ccc(S(=O)(=O)N2c3ccccc3C[C@H]2C(=O)N[C@@H](CC(C)C)C(=O)O)cc1` [Example 11]: the “CD3-induced inhibition of proliferation in [%]” value in data set [1] came to 61%. In data set [2], the “Inhibition [%] of PPIase activity” value came out at 40%.
On to `COCCNC(=O)[C@@H]1Cc2ccccc2N1C(=O)[C@@H]1Cc2ccccc2N1S(=O)(=O)c1ccc2ccccc2c1` [Example 15, (2S)-1-[((2S)-1-(2-Naphthalenylsulfonyl)indolin-2-yl)carbonyl]-N-(2-methoxyethyl)indoline-2-carbamide], for which the inhibition in data set [1] amounted to 56%. Also, in data set [2], the inhibition at 10 µM stood at 20%.
The corresponding values for `COC(=O)[C@H]1Cc2ccccc2N1S(=O)(=O)c1ccc(NC(C)=O)cc1` [Example 20, Methyl (2R)-[4-(acetylamino)phenylsulfonyl]indoline-2-carboxylate] are 15% and 0 to 20%.
For the compound `C=CC[C@@H]1/C=C(\C)C[C@H](C)C[C@H](OC)[C@H]2O[C@@](O)(C(=O)C(=O)N3CCCC[C@H]3C(=O)O[C@H](/C(C)=C/[C@@H]3CC[C@@H](O)[C@H](OC)C3)[C@H](C)[C@@H](O)CC1=O)[C@H](C)C[C@@H]2OC` [FK 506], the side effects result in data set [3] was “manifold side effects, in particular of the kidneys, and neurotoxicity”. For the same compound, the “therapeutic effect in bronchial asthma” value in data set [4] is “favorable therapeutic in bronchial asthma and underlying inflammations”. Also, the “binding to FKBP” value in data set [5] is “bind with high affinity”.
On to `Cc1ccc(S(=O)(=O)N2c3ccccc3C[C@H]2C(=O)N2c3ccccc3C[C@H]2C(=O)NCCCn2ccnc2)cc1` [Example 16, (2S)-1-[((2S)-1-(4-methylphenylsulfonyl)indolin-2-yl)carbonyl]-N^3-(N-propylimidazole)indoline-2-carbamide], for which the inhibition in data set [1] is 54%. The inhibition at 10 µM in data set [2] lay within 20 to 40%.
